{
  "source": "patent US20110218107A1",
  "about": "(priority 2010, published 2011)",
  "key": {"banana plants [1]": {"test_system": "banana plants", "test": "Greenhouse test banana under zinc deficiency: chlorophyll a fluorescence (Handy PEA)", "type": "in vivo", "settings": "0% Zn supply, curative treatment", "experimental": "(§1) Greenhouse experiments (Examples A and B) were carried out to evaluate the effect of fungicide applications on the growth and development of plants cultivated under Zn deficiency, in particular the effect of Propineb and Mancozeb on the growth and development of banana and tomato plants. Banana plants and tomato plants of the cultivar “Harzfeuer” were cultivated on rock wool at different zinc regimes, 100% and 0% zinc level, with and without Propineb or Mancozeb applications.\n(§2) Banana on rock wool has been sowed and approximately after 3 weeks, the plants have been transferred to rock wool bags. After the specified intervals the plants have been treated 2 times preventive or one time curative with Propineb and/or have been fertilized with a modified Hoagland solution which contained 100% or 0% zinc and having the composition as given below. The fertilization was carried out in combination with the irrigation, using a drip application system.\n(§3) Propineb has been applied through spray application of commercially available Antracol 70WG solution (conc. 0.15% Propineb). Preventive treatments with Propineb were carried out 34 days and 57 days (Treatment No. 3) after sowing. Curative application of Propineb was carried out 85 days (Treatment No. 4) after sowing according to the following regime:\n(§4) The effect of preventive and curative Propineb treatments on the growth and development of banana plants was evaluated by measuring the leaf size, leaf weight and the chlorophyll a fluorescence using a Handy PEA system. The assessment of Treatment No. 3 was carried out 101 days after sowing. The morphological assessment of Treatment No. 4 was carried out 121 days after sowing. The chlorophyll a fluorescence was measured 13 and 28 days after the curative application of Propineb.\nFv/Fm: Fv/Fm is a parameter widely used to indicate the maximum quantum efficiency of photosystem II(PSII) This parameter is widely considered to be a selective indication of plant photosynthetic performance with healthy samples typically achieving a maximum Fv/Fm value of approx. 0.85. Values lower than this will be observed if a sample has been exposed to some type of biotic or abiotic stress factor which has reduced the capacity for photo-chemical quenching of energy within PSII. Fv/Fm is presented as a ratio of variable fluorescence (Fv) over the maximum fluorescence value (Fm). The Performance Index is essentially an indicator of sample vitality. (See e.g. Advanced Techniques in Soil Microbiology, 2007, 11, 319-341; Applied Soil Ecology, 2000, 15, 169-182.)"}, "[2]": {"test_system": "tomato plants of the cultivar \"Harzfeuer\"", "test": "Greenhouse test tomato under zinc deficiency: plant weight and plant height", "type": "in vivo", "settings": "0% Zn supply", "experimental": "as §1\nas §2, with “Tomato” for “Banana”, “treated either” for “treated”, “and” for “with Propineb and/or”, “below. Propineb and Mancozeb were applied.” for “below.”\nPropineb has been applied through spray application of commercially available Antracol 70WG solution (conc. 0.15% Propineb). Mancozeb has been applied as commercially available Dithane NeoTec® 75WG (conc. 0.15% Mancozeb). Preventive treatments with Propineb or Mancozeb were carried out 27 days and 57 days (Treatment No. 3 and Treatment No. 5) after sowing. Curative applications of Propineb or Mancozeb were carried out 95 days (Treatment No. 4 and Treatment No. 6) after sowing according to the following regime:\nThe effect of preventive and curative treatments of Propineb and Mancozeb on the growth and development of tomato plants was evaluated by measuring the plant weight and plant height. The assessment of Treatment No. 3 and Treatment No. 5 was carried out 95 days after sowing. The morphological assessment of Treatment No. 4 and Treatment No. 6 was carried out 132 days after sowing."}, "banana plants [3]": {"test_system": "banana plants", "test": "Greenhouse test banana under zinc deficiency: leaf size and leaf weight", "type": "in vivo", "settings": "0% Zn supply", "experimental": "as §1, §2, §3, §4"}, "vines": {"test_system": "vines", "settings": "cited from earlier work"}, "[4]": {"settings": "1st measurement (13 days after curative application)"}, "[5]": {"settings": "2nd measurement (28 days after curative application)"}, "[6]": {"settings": "curative spray 95 days after sowing (conc. 0.15%), assessed 132 days after sowing"}, "[7]": {"settings": "preventive spray 27 and 57 days after sowing (conc. 0.15%), assessed 95 days after sowing"}, "[8]": {"settings": "curative spray 85 days after sowing (0.15% Propineb), assessed 121 days after sowing"}, "[9]": {"settings": "preventive spray 34 and 57 days after sowing (0.15% Propineb), assessed 101 days after sowing"}},
  "note": "Like-named read-outs stand apart in the source and are kept apart here.",
  "data": [
    {"molecule": "Propineb", "values": [
      {"measurement": "Fv/Fm", "setting": "banana plants [1]; [4]", "value": 0.82},
      {"measurement": "Performance index", "setting": "banana plants [1]; [4]", "value": 2.21},
      {"measurement": "Fv/Fm", "setting": "banana plants [1]; [5]", "value": 0.83},
      {"measurement": "Performance index", "setting": "banana plants [1]; [5]", "value": 2.69},
      {"measurement": "Plant weight", "setting": "[2]; [6]", "value": 568, "unit": "g"},
      {"measurement": "Plant height", "setting": "[2]; [7]", "value": 76},
      {"measurement": "Plant weight", "setting": "[2]; [7]", "value": 341, "unit": "g"},
      {"measurement": "Leaf size", "setting": "banana plants [3]; [8]", "value": "2101 ± 612", "unit": "cm^2"},
      {"measurement": "Leaf weight", "setting": "banana plants [3]; [8]", "value": 90, "unit": "g"},
      {"measurement": "Average leaf size", "setting": "banana plants [3]; [9]", "value": "2062 ± 284", "unit": "cm^2"},
      {"measurement": "Average leaf weight", "setting": "banana plants [3]; [9]", "value": 76, "unit": "g"}
    ]},
    {"molecule": "Mancozeb", "values": [
      {"measurement": "Plant weight", "setting": "[2]; [6]", "value": 409, "unit": "g"},
      {"measurement": "Plant height", "setting": "[2]; [7]", "value": 64},
      {"measurement": "Plant weight", "setting": "[2]; [7]", "value": 249, "unit": "g"}
    ]},
    {"molecule": "S=C(S)NCCNC(=S)S", "note": "[Zineb]", "values": [
      {"measurement": "yield and growth compared to untreated vines", "setting": "vines; vines, ISHS Acta Horticulturae 1987, 199, 157-161", "value": "significantly greater yield and growth"}
    ]},
    {"molecule": "O=S(=O)([O-])[O-].[Zn+2]", "note": "[zinc sulfate]", "values": [
      {"measurement": "yield and growth compared to untreated vines", "setting": "vines; in vivo", "value": "significantly greater yield and growth"}
    ]}
  ]
}
